# Experiments:
# [1] = Unbound fraction during UGT-mediated glucuronidation in human intestinal microsomes
# [2] = Intrinsic clearance in human intestinal microsomes assessed UGT-mediated glucuronidation clearance
# [3] = Unbound intrinsic clearance in human intestinal microsomes assessed UGT-mediated glucuronidation clearance
# [4] = Apparent permeability by PAMPA method
# in vitro = settings: human, blood and plasma
# Description: Ratio of drug level in blood to plasma in human
# [5] = target: T1, UDP-glucuronosyltransferase 1A1 (Homo sapiens, UniProt P22309); test: Activity of human UGT1A1 expressed in insect cells assessed as reduction in compound level after 30 mins; type: ADME; settings: 0.5 h
# T1 sequence (P22309 whole entry): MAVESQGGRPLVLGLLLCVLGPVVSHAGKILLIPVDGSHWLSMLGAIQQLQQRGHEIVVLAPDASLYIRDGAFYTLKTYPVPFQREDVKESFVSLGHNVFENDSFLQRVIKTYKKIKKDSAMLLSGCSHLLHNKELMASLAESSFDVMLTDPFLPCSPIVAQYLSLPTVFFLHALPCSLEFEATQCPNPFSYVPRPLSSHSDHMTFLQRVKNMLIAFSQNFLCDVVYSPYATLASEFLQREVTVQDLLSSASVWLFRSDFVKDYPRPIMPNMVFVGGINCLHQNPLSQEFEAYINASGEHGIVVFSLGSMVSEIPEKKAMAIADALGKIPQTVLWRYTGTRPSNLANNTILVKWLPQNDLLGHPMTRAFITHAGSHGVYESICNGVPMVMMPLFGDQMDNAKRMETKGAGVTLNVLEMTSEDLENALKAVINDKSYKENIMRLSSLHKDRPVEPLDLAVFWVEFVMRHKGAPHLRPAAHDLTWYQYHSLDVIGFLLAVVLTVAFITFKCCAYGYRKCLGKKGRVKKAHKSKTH
# [6] = target: T2, UDP-glucuronosyltransferase 1A8 (Homo sapiens, UniProt Q9HAW9); test: Activity of human UGT1A8 expressed in insect cells assessed as reduction in compound level after 30 mins; type: ADME; settings: 0.5 h
# T2 sequence (Q9HAW9 whole entry): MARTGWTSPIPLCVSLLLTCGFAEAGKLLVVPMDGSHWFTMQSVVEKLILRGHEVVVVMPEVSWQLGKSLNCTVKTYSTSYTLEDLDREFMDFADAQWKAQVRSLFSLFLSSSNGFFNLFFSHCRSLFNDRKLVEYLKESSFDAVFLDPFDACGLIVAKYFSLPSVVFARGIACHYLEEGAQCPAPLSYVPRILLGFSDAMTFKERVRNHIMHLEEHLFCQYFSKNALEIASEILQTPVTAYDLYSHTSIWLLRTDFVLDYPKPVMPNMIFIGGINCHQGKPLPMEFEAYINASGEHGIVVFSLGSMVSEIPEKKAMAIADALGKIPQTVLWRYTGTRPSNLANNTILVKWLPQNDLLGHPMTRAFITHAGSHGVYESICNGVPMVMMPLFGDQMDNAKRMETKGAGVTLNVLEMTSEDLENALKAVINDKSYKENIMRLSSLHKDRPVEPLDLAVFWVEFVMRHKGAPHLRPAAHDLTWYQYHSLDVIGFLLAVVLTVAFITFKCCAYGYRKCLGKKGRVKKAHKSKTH
# [7] = target: T3, UDP-glucuronosyltransferase 1A10 (Homo sapiens, UniProt Q9HAW8); test: Activity of human UGT1A10 expressed in insect cells assessed as reduction in compound level after 30 mins; type: ADME; settings: 0.5 h
# T3 sequence (Q9HAW8 whole entry): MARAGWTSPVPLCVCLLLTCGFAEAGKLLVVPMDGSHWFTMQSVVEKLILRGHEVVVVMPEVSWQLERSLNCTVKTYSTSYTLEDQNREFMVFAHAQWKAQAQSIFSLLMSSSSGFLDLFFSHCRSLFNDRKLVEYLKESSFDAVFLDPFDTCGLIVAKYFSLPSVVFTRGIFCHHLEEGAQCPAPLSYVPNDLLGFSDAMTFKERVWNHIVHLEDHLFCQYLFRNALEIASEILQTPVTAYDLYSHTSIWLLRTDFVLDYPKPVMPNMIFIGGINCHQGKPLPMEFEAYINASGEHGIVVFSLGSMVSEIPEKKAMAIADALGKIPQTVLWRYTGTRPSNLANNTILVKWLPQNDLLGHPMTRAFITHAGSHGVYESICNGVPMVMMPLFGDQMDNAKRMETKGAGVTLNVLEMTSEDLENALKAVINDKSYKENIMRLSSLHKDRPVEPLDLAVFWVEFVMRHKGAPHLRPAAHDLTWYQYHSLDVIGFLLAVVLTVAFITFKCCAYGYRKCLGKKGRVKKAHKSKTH
# [8] = Oral bioavailability in human; type: ADME, organism-based; settings: in vivo
# [9] = Intrinsic clearance in human intestinal microsomes assessed CYP450-mediated glucuronidation clearance
# [10] = Unbound intrinsic clearance in human intestinal microsomes assessed CYP450-mediated glucuronidation clearance
# [11] = target: T4, UDP-glucuronosyltransferase 2B7 (Homo sapiens, UniProt P16662); test: Activity of human UGT2B7 expressed in insect cells assessed as reduction in compound level after 30 mins; type: ADME; settings: 0.5 h
# T4 sequence (P16662 whole entry): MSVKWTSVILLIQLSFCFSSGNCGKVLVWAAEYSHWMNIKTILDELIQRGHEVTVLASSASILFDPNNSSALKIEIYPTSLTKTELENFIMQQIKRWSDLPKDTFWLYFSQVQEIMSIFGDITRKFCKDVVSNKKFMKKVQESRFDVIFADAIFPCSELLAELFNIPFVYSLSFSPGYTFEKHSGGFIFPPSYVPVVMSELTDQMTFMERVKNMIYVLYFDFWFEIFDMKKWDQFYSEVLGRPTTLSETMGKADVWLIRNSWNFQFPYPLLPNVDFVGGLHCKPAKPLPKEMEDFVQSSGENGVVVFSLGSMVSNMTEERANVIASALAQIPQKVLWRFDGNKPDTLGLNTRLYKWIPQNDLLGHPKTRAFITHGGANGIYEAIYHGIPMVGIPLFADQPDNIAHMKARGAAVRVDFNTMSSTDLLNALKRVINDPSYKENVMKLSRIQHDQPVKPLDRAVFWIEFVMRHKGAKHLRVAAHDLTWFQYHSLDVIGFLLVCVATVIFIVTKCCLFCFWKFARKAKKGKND
# [12] = target: T5, UDP-glucuronosyltransferase 1A9 (Homo sapiens, UniProt O60656); test: Activity of human UGT1A9 expressed in insect cells assessed as reduction in compound level after 30 mins; type: ADME; settings: 0.5 h
# T5 sequence (O60656 whole entry): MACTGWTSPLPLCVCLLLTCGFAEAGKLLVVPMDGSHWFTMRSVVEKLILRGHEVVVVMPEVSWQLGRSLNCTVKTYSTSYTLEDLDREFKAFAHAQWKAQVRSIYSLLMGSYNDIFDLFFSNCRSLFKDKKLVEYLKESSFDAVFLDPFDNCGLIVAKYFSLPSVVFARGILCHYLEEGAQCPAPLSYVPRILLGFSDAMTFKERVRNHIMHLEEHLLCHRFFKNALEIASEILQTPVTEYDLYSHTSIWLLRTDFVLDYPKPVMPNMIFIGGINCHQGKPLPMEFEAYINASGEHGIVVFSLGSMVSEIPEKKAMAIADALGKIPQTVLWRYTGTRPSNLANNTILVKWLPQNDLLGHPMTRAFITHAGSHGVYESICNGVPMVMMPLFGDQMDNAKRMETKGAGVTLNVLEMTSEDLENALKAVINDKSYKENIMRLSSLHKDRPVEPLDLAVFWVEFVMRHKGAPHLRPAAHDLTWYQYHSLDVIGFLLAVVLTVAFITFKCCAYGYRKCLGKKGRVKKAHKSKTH
# clinical [13] = settings: human, in vivo, po
# clinical [14] = settings: human, in vivo
# clinical [15] = settings: human, in vivo; remark: listed apart in the source
# [16] = target: T6, UDP-glucuronosyltransferase 1A3 (Homo sapiens, UniProt P35503); test: Activity of human UGT1A3 expressed in insect cells assessed as reduction in compound level after 30 mins; type: ADME; settings: 0.5 h
# T6 sequence (P35503 whole entry): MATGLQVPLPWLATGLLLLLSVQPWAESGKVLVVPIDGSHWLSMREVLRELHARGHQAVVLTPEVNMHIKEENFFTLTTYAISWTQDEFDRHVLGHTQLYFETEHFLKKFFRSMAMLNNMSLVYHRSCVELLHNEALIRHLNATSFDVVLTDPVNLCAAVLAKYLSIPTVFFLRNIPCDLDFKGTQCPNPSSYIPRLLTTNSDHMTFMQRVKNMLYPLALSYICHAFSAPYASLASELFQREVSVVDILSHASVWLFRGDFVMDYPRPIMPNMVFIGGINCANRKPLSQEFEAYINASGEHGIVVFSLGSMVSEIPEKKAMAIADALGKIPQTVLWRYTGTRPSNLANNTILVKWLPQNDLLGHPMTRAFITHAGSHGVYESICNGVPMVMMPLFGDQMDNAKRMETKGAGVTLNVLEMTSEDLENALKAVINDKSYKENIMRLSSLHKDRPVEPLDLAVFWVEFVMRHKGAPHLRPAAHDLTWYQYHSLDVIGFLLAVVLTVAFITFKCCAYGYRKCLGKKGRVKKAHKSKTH
# [17] = Drug absorption in po dosed human; type: ADME, organism-based; settings: in vivo, read-out: Drug absorption
# [18] = Unbound fraction during CYP4500-mediated metabolism in human intestinal microsomes
SMILES,fraction unbound ([1]; microsomes),microsomal CLint ([2]; intestinal microsomes) [µL/min/mg],CL free [3] [µL/min/mg],Papp [4] [×10⁻⁶ cm/s],blood plasma ratio (in vitro),fraction unbound ([1]; intestinal microsomes),Drug metabolism [12],also measured
CCCc1nc2c(C)cc(-c3nc4ccccc4n3C)cc2n1Cc1ccc(-c2ccccc2C(=O)O)cc1,0.92,20,21.7,> 30,0.67,–,–,–
Cc1c(-c2ccc(O)cc2)n(Cc2ccc(OCCN3CCCCCC3)cc2)c2ccc(O)cc12 [BAZEDOXIFENE],–,–,–,20,–,–,–,Drug metabolism [5]: metabolite_detected; Drug metabolism [6]: metabolite_detected; Drug metabolism [7]: metabolite_detected; bioavailability [8]: 6.2%
O=C(O)Cc1ccccc1Nc1c(Cl)cccc1Cl [DICLOFENAC],0.94,–,62.7,–,–,–,–,microsomal CLint ([2]; microsomes): 59 µL/min/mg; CL ([9]; microsomes): metabolite_not_detected; CL free [10]: metabolite_not_detected; Drug metabolism [11]: metabolite_detected
CCN(CC)C(=O)/C(C#N)=C/c1cc(O)c(O)c([N+](=O)[O-])c1 [ENTACAPONE],–,27,27,4.1,0.59,1,–,–
CCc1cccc2c3c([nH]c12)C(CC)(CC(=O)O)OCC3 (configuration not stated) [ETODOLAC],–,6.2,5.7,23,0.55,–,metabolite_detected,bioavailability [8]: 80%; CL/F (clinical [13]): 0.82 mL/min/kg; clearance (clinical [14]): 0.66 mL/min/kg
COc1ccc2c(c1)c(CC(=O)O)c(C)n2C(=O)c1ccc(Cl)cc1 [INDOMETHACIN],0.8,4.2,5.2,22,0.55,–,metabolite_detected,clearance (clinical [14]): 1.4 mL/min/kg; CL renal (clinical [15]): 0.21 mL/min/kg
Cc1ncc2n1-c1ccc(Cl)cc1C(c1ccccc1F)=NC2 [MIDAZOLAM],–,–,–,–,–,–,–,microsomal CLint ([9]; microsomes): 153 µL/min/mg
O=c1c(O)c(-c2ccc(O)c(O)c2)oc2cc(O)cc(O)c12 [QUERCETIN],–,4620,5133,< 1.5,1,0.9,–,Drug metabolism [16]: metabolite_detected; Drug metabolism [5]: metabolite_detected; Fa [17]: 65%; CL/F (clinical [13]): 8330 mL/min/kg
O=C(c1ccc(OCCN2CCCCC2)cc1)c1c(-c2ccc(O)cc2)sc2cc(O)ccc12 [RALOXIFENE],–,–,2224,3,–,0.98,–,CL ([2]; microsomes): 2180 µL/min/mg; fraction unbound [18]: 0.43; microsomal CLint ([9]; intestinal microsomes): 8.9 µL/min/mg; CL free [10]: 20.7 µL/min/mg; Drug metabolism [6]: metabolite_detected; Drug metabolism [7]: metabolite_detected
Cc1ccc(C(=O)c2cc(O)c(O)c([N+](=O)[O-])c2)cc1 [TOLCAPONE],–,40,103,18,0.61,0.39,metabolite_detected,–

# From ChEMBL document CHEMBL3525973, “Quantitative prediction of human intestinal glucuronidation effects on intestinal availability of UDP-glucuronosyltransferase substrates using in vitro data” (Drug Metab Dispos, 2012)
